In patent US12221446B2 (Merck Patent GmbH, priority 2018, dated 2025):
Where two headings read alike, the source gives them in different places.

Assays:
[1] = Method: DVS measurements are typically performed with an SPS11-100n “Sorptions Prüfsystem” from ProUmid (formerly “Projekt Messtechnik”), August-Nagel-Str. 23, 89079 Ulm (Germany).
DVS measurements were performed with an SPS11-100n “Sorptions Prüfsystem” from ProUmid (formerly “Projekt Messtechnik”), August-Nagel-Str. 23, 89079 Ulm (Germany).

[2] = 25° C./60% rh; for Pyrazino-s-triazine derivative of 4α-hydroxy-5-methyl-THF (MeFox) (% w/w): major degradation product
[3] = for Pyrazino-s-triazine derivative of 4α-hydroxy-5-methyl-THF (MeFox) (% abs.): 40° C./75% rh, major degradation product
[4] = Water content / TG-FTIR analysis

change of water content ([1]; relative humidity from 20 to 75% r.h.): more than 6%
change of water content (DVS) ([1]; within the tested range, 0 to 75% r.h.): more than 6%
Pyrazino-s-triazine derivative of 4α-hydroxy-5-methyl-THF (MeFox) (% w/w) ([2]; 0 months): 0.20 % w/w
Pyrazino-s-triazine derivative of 4α-hydroxy-5-methyl-THF (MeFox) (% w/w) ([2]; 3 months): 0.59 % w/w
Pyrazino-s-triazine derivative of 4α-hydroxy-5-methyl-THF (MeFox) (% w/w) ([2]; 6 months): 0.71 % w/w
Pyrazino-s-triazine derivative of 4α-hydroxy-5-methyl-THF (MeFox) (% w/w) ([2]; 9 months): 0.68 % w/w
content of MeFox ([2]; already before reaching 9 months): over 0.6%
Pyrazino-s-triazine derivative of 4α-hydroxy-5-methyl-THF (MeFox) (% abs.) ([3]; 0 months): 0.20 % abs.
Pyrazino-s-triazine derivative of 4α-hydroxy-5-methyl-THF (MeFox) (% abs.) ([3]; 3 months): 0.72 % abs.
Pyrazino-s-triazine derivative of 4α-hydroxy-5-methyl-THF (MeFox) (% abs.) ([3]; 6 months): 0.80 % abs.
Pyrazino-s-triazine derivative of 4α-hydroxy-5-methyl-THF (MeFox) (% abs.) ([3]; 9 months): 0.68 % abs.
content of MeFox ([3]; already before reaching 9 months (Table 7)): over 0.6%
water content (generally) ([4]; general statement): more than 10%
water content ([4]; measured on a sample): 12.4%
Compound: CN1c2c([nH]c(N)nc2=O)NC[C@@H]1CNc1ccc(C(=O)N[C@@H](CCC(=O)[O-])C(=O)[O-])cc1.[Ca+2]
